This passage reports RP-LC retention time results from the METLIN SMRT retention time set (Domingo-Almenara et al. 2019).

SMILES strings stand for the structures.

This series can be described thus: gradient 5% acetonitrile 3 min, to 50% in 2 min, to 85% in 15 min, held 3 min, 100 µL/min. As to conditions: column: Zorbax Extend-C18 2.1 x 50 mm; eluents: water / acetonitrile, 0.1% formic acid. Summed up:
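Data were gathered over 3 months by HPLC coupled to a quadrupole time-of-flight mass spectrometer, operated in positive and negative ionization mode. Mixtures of ~100 pure standards ran on a Zorbax Extend-C18 column (2.1 × 50 mm, 1.8 μm) at 100 μL/min, with water and acetonitrile each containing 0.1% formic acid and dead and dwell volumes of 40 μL and 900 μL. Retention time was read from adduct peaks picked by computer and checked manually.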
`CCNC(=O)N1CC(Oc2cccc(-c3nc(-c4ccccc4)no3)c2)C1` showed an RP-LC retention time of 939 s.

In turn, `c1cc(-c2nc(-c3ccc4c(c3)ncn4CCN3CCCCC3)no2)cs1` had an RP-LC retention time of 609 s. `O=C(NC(Cc1ccccc1)c1nc2ccccc2[nH]1)c1cccs1` (stereo not given) registered an RP-LC retention time of 607 s. `CS(=O)(=O)c1cccc(CNc2nc(Nc3ccc4c(c3)CCC(=O)N4)ncc2C(F)(F)F)c1`: the RP-LC retention time came out at 737 s. With `Cc1noc(C2(NC(=O)c3ccc(C(F)(F)F)cc3)CCCCC2)n1` the figure was 711 s. `CCN(CC)CCCn1c(C)cc2c(c1=O)C(c1ccc(Cl)cc1)C(C#N)=C(N)O2` (stereo not given) displayed an RP-LC retention time of 658 s. `CCOC(=O)C1CCN(C(=O)CN2CCN(Cc3ccc(C)cc3)C(=O)C2=O)CC1` showed an RP-LC retention time of 710 s. Regarding `CCS(=O)(=O)N1C[C@@H](COc2ccncc2)[C@H](c2ccccn2)C1`, the RP-LC retention time was determined as 512 s. Molecule `CCSc1nnc(-c2nn(C)c3c2CN(S(=O)(=O)c2cccc(Cl)c2C)CC3)n1CC` registered an RP-LC retention time of 1050 s. The molecule `CCN1CCN(CCNC(=O)Cn2c(=O)n(-c3ccccc3)c3ncccc32)CC1` came in with an RP-LC retention time of 564 s. The molecule `CCN(CC)S(=O)(=O)c1ccc2c(c1)N(CC(=O)NCCCOC(C)C)C(=O)C1CCCCN21` (stereo not given) showed an RP-LC retention time of 907 s.

Molecule `CN(CC1CCOC1)C(=O)c1ccccc1Br` (stereo not given) returned an RP-LC retention time of 697 s.

`O=C(c1ccc(Cl)cc1)N1CCN(c2cc(-c3ccc(Cl)cc3)[nH]n2)CC1` displayed an RP-LC retention time of 936 s. The molecule `COc1ccc(C(=O)N2CCC3(CC2)N=C(c2cccc(Br)c2)NO3)cc1F` gave an RP-LC retention time of 901 s. `Cn1c(C(=O)NCc2ccccc2Cl)cc2ccncc21`: the RP-LC retention time is 643 s.

The molecule `COc1ccc(C(=O)N2CCC(n3nc(-c4ccsc4)ccc3=O)CC2)cc1` showed an RP-LC retention time of 797 s.

The molecule `CCc1nnc(NC(=O)c2c[nH]c3c(Cl)cccc3c2=O)s1` had an RP-LC retention time of 693 s.

Consider `O=C(Cn1c(-c2cccs2)cc2cc(Cl)ccc21)N1CCN(c2ccccn2)CC1`, for which the RP-LC retention time is 809 s.

In the case of `COCCN1C(=O)c2ccccc2C(C(=O)Nc2ccc3[nH]ccc3c2)C12CCCC2` (stereo not given), the RP-LC retention time is 814 s.

The molecule `COC(=O)c1scc(C)c1NC(=O)C(C)NC(C)C` (stereo not given) returned an RP-LC retention time of 618 s. The molecule `Nc1nc(-c2ccccc2)nn1C(=O)c1ccccc1` yielded an RP-LC retention time of 904 s. In the case of `Cc1ccc(Cl)c(NC(=O)C2CCc3nc(N4CCOCC4)ncc3C2)c1` (stereo not given), the RP-LC retention time stood at 865 s. With `O=C(NC1CCCC1)c1cccnc1N1CCCCC1`, the RP-LC retention time is 684 s. Regarding `Cc1ccccc1CNC(=O)C1c2ccccc2CC(=O)N1C(C)C` (stereo not given), the RP-LC retention time is 827 s. Take `CCn1nccc1-c1cccc(-c2noc(-c3cccc(NC(C)=O)c3)n2)c1`: the RP-LC retention time turned out to be 924 s.

In turn, `Cc1cccc(-c2noc(-c3nn(CC(=O)NC(C)C)c4ccccc34)n2)c1` yielded an RP-LC retention time of 1090 s. For the molecule `O=C(COc1cccc2ccc(N3CCOCC3)nc12)NCC1CCCO1` (stereo not given), the RP-LC retention time is 564 s.

The molecule `CCCN(C)c1ccc2ncc(=O)n(C)c2n1` registered an RP-LC retention time of 923 s. In turn, `Cc1ccc(CNC(=O)Cn2ccc3ccc(-c4nnc(C)o4)cc32)cc1` registered an RP-LC retention time of 798 s. As for `O=C(NCCO)C(=O)NCC1(c2ccccc2)CCCC1`, the RP-LC retention time is 715 s. With `Cc1ccc2[nH]cc(CCNC(=O)Nc3ccc(Cl)cc3)c2c1` the figure was 962 s.

Molecule `Cc1cc(-c2csc(S(=O)(=O)N3CCN(CCOc4ccc(Cl)cc4)CC3)c2)on1` came in with an RP-LC retention time of 760 s. As to `Cc1cc(C)c(NC(=O)Cn2c(C)nc3onc(C)c3c2=O)c(C)c1`, the RP-LC retention time was found to be 814 s.

In turn, `O=C(NCC1CC(=O)N(c2ccc3c(c2)OCO3)C1)C1CC1` (stereo not given) had an RP-LC retention time of 606 s. Take `Cc1cccc(Nc2nc(C(=O)NCCC3=CCCCC3)nc3ccccc23)c1`: the RP-LC retention time came to 995 s. Molecule `Cc1ccc(N2C=C(C(=O)N3CCCCC3)S(=O)(=O)c3ccccc32)cc1C` gave an RP-LC retention time of 953 s. `O=S(=O)(c1cccn2c(SCc3ccccc3)nnc12)N1CCN(c2ccc(F)cc2)CC1` yielded an RP-LC retention time of 958 s. In turn, `CCCN(C(=O)c1ccc(Br)cc1)C1(C(=O)NCc2ccccc2)CCN(C(C)=O)CC1` returned an RP-LC retention time of 626 s. With `CCn1c(=O)c(=O)n(CC(=O)NC2CCCCCCC2)c2cccnc21`, the RP-LC retention time turned out to be 806 s. As for `CN(C)C(=O)c1ccc2c(c1)nnn2CCNC(=O)Nc1ccc(F)cc1`, the RP-LC retention time turned out to be 640 s. `CC1CCN(C(=O)c2nc(-c3ccnc(N4CCCC4)c3)no2)CC1` displayed an RP-LC retention time of 684 s. In turn, `C=CCn1c(=O)c2ccccc2n(Cc2nc(-c3cccc(C(F)(F)F)c3)no2)c1=O` returned an RP-LC retention time of 1110 s. Regarding `CCOC(=O)c1c(S(=O)(=O)N2CCC(C(=O)Nc3ccccc3C)CC2)c(C)n(CC)c1C`, the RP-LC retention time stood at 874 s. In turn, `CCC(=O)Nc1ccc(-n2cnc(C(=O)NC3CCC(C)CC3)c2)nc1` (stereo not given) registered an RP-LC retention time of 710 s. The molecule `c1ccc(CCc2nc(-c3ccnc(N4CCOCC4)c3)no2)cc1` came in with an RP-LC retention time of 919 s. `O=C(Nc1ccc(-n2cnnn2)cc1)c1ccc(OCc2nc(C3CC3)cs2)cc1`: the RP-LC retention time worked out at 823 s.

`Cc1ccc2[nH]c(=O)c(CCC(=O)NCCCN3CCCC(C)C3)cc2c1` (stereo not given) gave an RP-LC retention time of 594 s.

As for `CC(=O)Nc1ccc(CCc2nc3ccc(C(=O)NC(C)CCc4ccccc4)cc3[nH]2)cc1` (stereo not given), the RP-LC retention time turned out to be 682 s.

For `C[C@]12CCC(=O)C[C@@H]1CC[C@@H]1[C@@H]2CC[C@@]2(C)[C@H]1CC[C@]2(C)O`, the RP-LC retention time stood at 1050 s. `CSc1ccc(CNC(=O)C2CCCN(c3ccc(=O)n(-c4cccc(F)c4)n3)C2)cc1` (stereo not given) yielded an RP-LC retention time of 888 s.

`CCC(C)NC(=O)c1c(C)oc2ccn(Cc3ccc(F)cc3)c(=O)c12` (stereo not given): the RP-LC retention time stood at 1040 s. For `COc1ccc(OC)c(NC(=O)Cn2nc(N3CCC(C)CC3)c3ccccc3c2=O)c1`, the RP-LC retention time is 1180 s.

On to `CC(NC(=O)c1ccco1)c1nc2ccccc2n1CC(=O)N(C)c1ccccc1` (stereo not given), for which the RP-LC retention time amounted to 694 s. `CCn1cnc(S(=O)(=O)N2CCC(C(=O)Nc3cccc(C)c3C)CC2)c1` returned an RP-LC retention time of 721 s. `O=C(Nc1cc(-c2ccsc2)no1)C1CC1` registered an RP-LC retention time of 792 s.

In turn, `CN(C)S(=O)(=O)c1ccc(-c2nnc(C(=O)NCc3cccc(C(F)(F)F)c3)o2)cc1` had an RP-LC retention time of 958 s. For `C[C@@H]1c2ccccc2CCN1C(=O)c1ccccc1F`, the RP-LC retention time was 919 s.

For `CC1CCN(C(=O)c2cccn2Cc2noc(-c3ccc(Cl)cc3)n2)CC1`, the RP-LC retention time was 1200 s. `O=C(NC1CC1)C1CCN(c2nc3ccc(-c4cncnc4)nc3s2)CC1`: the RP-LC retention time came out at 672 s. Molecule `Cc1ccc(NS(=O)(=O)c2cc(-c3[nH]ncc3C(=O)N(C)C)oc2C)cc1C` showed an RP-LC retention time of 729 s. The molecule `CC(C)n1nnc2cc(C(=O)N(C)CC(=O)Nc3ccc(F)c(Cl)c3)ccc21` came in with an RP-LC retention time of 790 s. Next, `Cc1ccc2nsnc2c1NC(=O)Cn1c(-c2cncs2)nc2ccccc21`: 682 s; `CCOc1ccccc1N1CCN(C(=O)CSc2nccnc2Oc2ccc(C)cc2)CC1`: 1020 s; `O=c1c2cnn(-c3ccc(Br)cc3)c2ncn1Cc1nc(-c2ccc(F)cc2)no1`: 1150 s. With `Cc1ccc(Sc2ccc(N3CCC(C(=O)N4CCN(c5ncccn5)CC4)CC3)nn2)cc1` the figure was 741 s; with `O=C1COc2ccc(S(=O)(=O)N3CCC(C(=O)N4CCN(c5ccccc5)CC4)CC3)cc2N1`, 766 s; with `Cc1ccc(C(=O)N2CCN(S(=O)(=O)c3cc(-c4noc(C5CCC5)n4)cs3)CC2)s1`, 1060 s. With `CCn1ccc(C(=O)N2CC(c3nc(-c4ccsc4)nn3C)C2)n1`, the RP-LC retention time is 695 s.

Regarding `COC(=O)c1sccc1S(=O)(=O)N1CCN(S(=O)(=O)C2CC2)CC1`, the RP-LC retention time came to 717 s.

With `COCCNc1c(-c2ccc(F)cc2)nc2sc(C(=O)N3CCN(C)CC3)c(C)n12`, the RP-LC retention time turned out to be 569 s.

For `Cc1ccccc1Nc1c(-c2ccc(Cl)cc2Cl)nc2cnccn12`, the RP-LC retention time was determined as 1030 s.

On to `CCN1CCn2cc(S(=O)(=O)Nc3ccc(Cl)cc3F)cc2C1=O`, for which the RP-LC retention time turned out to be 752 s. Consider `COCCN(Cc1ccncc1)C(=O)c1ccc2nsnc2c1`, for which the RP-LC retention time amounted to 544 s.

`Cc1nc2cc(N3CC(C(=O)N4CCN(c5ccccc5)CC4)CC3=O)ccc2o1` (stereo not given) displayed an RP-LC retention time of 727 s. For the molecule `CCOC(=O)c1cnc2nc(C)ccc2c1Nc1ccc(F)c(F)c1`, the RP-LC retention time is 703 s. `Cc1ccc(CNC(=O)NCCCn2c(-c3ccncc3)nc3cccnc32)cc1`: the RP-LC retention time worked out at 651 s. With `Cc1cccc(Nc2c(-c3nc(C)no3)cnc3nc(C)ccc23)c1` the figure was 762 s; with `Cc1nnc2ccc(S(=O)(=O)N(Cc3ccccc3)c3ccc(Cl)cc3)cn12`, 930 s; with `Cc1ncsc1CN1CCC2(CC1)CC(Cc1ccc(F)cc1)CCO2` (stereo not given), 556 s. The molecule `CC(C)NC(=O)N1CCc2c(c(-c3nc(-c4ccccc4)no3)nn2C)C1` displayed an RP-LC retention time of 820 s.
